{"source": "ChEMBL document CHEMBL1155237", "about": "“Selective inhibitors of the mutant B-Raf pathway: discovery of a potent and orally bioavailable aminoisoquinoline” (J Med Chem, 2009)", "key": {"Mus musculus": {"test_system": "Mus musculus", "experiment": "Inhibition of ERK phosphorylation in human A375 SQ2 cells xenografted CD1 mouse at 2 mg/kg, po qd after 6 hrs", "type": "functional", "details": "CD1, A-375, 6 h"}, "[1]": {"experiment": "Elimination half life in Sprague-Dawley rat at 2 mg/kg, iv and 5 mg/kg, po", "type": "ADME, organism-based", "details": "in vivo, read-out: beta t1/2 (converted)"}, "[2]": {"target": "MAP/microtubule affinity-regulating kinase 3 (Homo sapiens) (UniProt P27448)", "sequence (P27448 whole entry, looked up)": "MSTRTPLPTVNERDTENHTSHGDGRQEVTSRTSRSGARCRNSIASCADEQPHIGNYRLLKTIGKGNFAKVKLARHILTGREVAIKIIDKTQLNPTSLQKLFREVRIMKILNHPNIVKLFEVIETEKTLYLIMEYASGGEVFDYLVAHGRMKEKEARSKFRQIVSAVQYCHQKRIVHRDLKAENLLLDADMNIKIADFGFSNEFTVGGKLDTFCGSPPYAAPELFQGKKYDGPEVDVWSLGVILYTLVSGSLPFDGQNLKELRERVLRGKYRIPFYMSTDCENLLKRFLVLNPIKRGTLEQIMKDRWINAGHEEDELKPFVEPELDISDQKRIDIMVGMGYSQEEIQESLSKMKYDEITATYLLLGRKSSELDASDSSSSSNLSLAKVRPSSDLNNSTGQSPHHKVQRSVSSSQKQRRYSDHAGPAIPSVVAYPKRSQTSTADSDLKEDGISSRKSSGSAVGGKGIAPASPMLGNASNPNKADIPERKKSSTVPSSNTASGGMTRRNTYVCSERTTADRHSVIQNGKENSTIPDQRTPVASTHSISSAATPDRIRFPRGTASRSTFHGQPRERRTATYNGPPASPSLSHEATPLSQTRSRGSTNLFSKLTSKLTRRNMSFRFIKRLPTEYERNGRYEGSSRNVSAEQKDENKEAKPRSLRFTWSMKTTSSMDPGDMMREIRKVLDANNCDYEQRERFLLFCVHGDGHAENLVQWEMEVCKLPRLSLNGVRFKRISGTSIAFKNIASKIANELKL", "experiment": "Inhibition of MARK3 assessed as enzyme activity at 1 uM relative to untreated control", "parameters": "scale not given: the % may be the effect or the level left"}, "[3]": {"target": "Dual specificity mitogen-activated protein kinase kinase 1 (Homo sapiens) (UniProt Q02750)", "experiment": "Inhibition of MEK1 assessed as enzyme activity at 1 uM relative to untreated control", "parameters": "scale not given: the % may be the effect or the level left"}, "[4]": {"target": "Maternal embryonic leucine zipper kinase (Homo sapiens) (UniProt Q14680)", "experiment": "Inhibition of MELK assessed as enzyme activity at 1 uM relative to untreated control", "parameters": "scale not given: the % may be the effect or the level left"}, "[5]": {"target": "Serine/threonine-protein kinase 26 (Homo sapiens) (UniProt Q9P289)", "sequence (Q9P289 2-416 limits assumed)": "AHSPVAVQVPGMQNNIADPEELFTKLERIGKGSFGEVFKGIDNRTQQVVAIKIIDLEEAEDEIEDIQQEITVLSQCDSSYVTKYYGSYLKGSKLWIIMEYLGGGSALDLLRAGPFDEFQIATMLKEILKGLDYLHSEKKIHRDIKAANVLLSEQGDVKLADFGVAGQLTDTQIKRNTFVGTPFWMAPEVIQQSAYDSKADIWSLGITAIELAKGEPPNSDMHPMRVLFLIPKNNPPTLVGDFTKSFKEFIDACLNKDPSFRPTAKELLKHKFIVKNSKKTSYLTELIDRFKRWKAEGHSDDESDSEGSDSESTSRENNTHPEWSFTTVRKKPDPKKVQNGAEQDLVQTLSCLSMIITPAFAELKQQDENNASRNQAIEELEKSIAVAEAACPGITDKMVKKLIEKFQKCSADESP", "experiment": "Inhibition of MST4 assessed as enzyme activity at 1 uM relative to untreated control", "parameters": "scale not given: the % may be the effect or the level left"}, "[6]": {"target": "Muscle, skeletal receptor tyrosine-protein kinase (Homo sapiens) (UniProt O15146)", "experiment": "Inhibition of MUSK assessed as enzyme activity at 1 uM relative to untreated control", "parameters": "scale not given: the % may be the effect or the level left"}, "[7]": {"test_system": "Mast/stem cell growth factor receptor Kit (Homo sapiens), P10721 [V559D,T670I]", "experiment": "Inhibition of KIT V559D,T670I mutant assessed as enzyme activity at 1 uM relative to untreated control", "parameters": "scale not given: the % may be the effect or the level left"}, "[8]": {"target": "LIM domain kinase 1 (Homo sapiens) (UniProt P53667)", "sequence (P53667 whole entry, looked up, the tested form may be a part)": "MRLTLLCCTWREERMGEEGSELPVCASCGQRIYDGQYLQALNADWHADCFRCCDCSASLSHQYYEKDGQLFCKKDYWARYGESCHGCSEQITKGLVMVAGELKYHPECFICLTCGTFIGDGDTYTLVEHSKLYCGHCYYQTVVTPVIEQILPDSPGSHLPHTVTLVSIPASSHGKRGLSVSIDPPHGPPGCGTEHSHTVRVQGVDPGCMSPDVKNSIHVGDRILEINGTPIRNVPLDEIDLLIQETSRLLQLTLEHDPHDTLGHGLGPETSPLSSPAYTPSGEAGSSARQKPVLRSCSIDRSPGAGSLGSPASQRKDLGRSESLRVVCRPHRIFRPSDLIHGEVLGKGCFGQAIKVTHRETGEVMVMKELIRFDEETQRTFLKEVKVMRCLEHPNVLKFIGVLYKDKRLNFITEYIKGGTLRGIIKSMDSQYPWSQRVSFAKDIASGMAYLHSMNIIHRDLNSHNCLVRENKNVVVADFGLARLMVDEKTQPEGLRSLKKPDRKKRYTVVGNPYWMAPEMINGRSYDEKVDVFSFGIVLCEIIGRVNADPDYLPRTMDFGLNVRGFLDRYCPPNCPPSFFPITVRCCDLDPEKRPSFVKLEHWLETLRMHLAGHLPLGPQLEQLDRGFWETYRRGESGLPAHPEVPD", "experiment": "Inhibition of LIMK1 assessed as enzyme activity at 1 uM relative to untreated control", "parameters": "scale not given: the % may be the effect or the level left"}, "[9]": {"target": "Mitogen-activated protein kinase kinase kinase kinase 2 (Homo sapiens) (UniProt Q12851)", "experiment": "Inhibition of MAP4K2 assessed as enzyme activity at 1 uM relative to untreated control", "parameters": "scale not given: the % may be the effect or the level left"}, "[10]": {"target": "Calcium/calmodulin-dependent protein kinase type 1 (Homo sapiens) (UniProt Q14012)", "experiment": "Inhibition of CAMK1 assessed as enzyme activity at 1 uM relative to untreated control", "parameters": "scale not given: the % may be the effect or the level left"}, "[11]": {"target": "Cyclin-dependent kinase 11A (Homo sapiens) (UniProt Q9UQ88)", "experiment": "Inhibition of CDC2L2 assessed as enzyme activity at 1 uM relative to untreated control", "parameters": "scale not given: the % may be the effect or the level left"}, "[12]": {"target": "Cyclin-dependent kinase 3 (Homo sapiens) (UniProt Q00526)", "sequence (Q00526 whole entry, looked up)": "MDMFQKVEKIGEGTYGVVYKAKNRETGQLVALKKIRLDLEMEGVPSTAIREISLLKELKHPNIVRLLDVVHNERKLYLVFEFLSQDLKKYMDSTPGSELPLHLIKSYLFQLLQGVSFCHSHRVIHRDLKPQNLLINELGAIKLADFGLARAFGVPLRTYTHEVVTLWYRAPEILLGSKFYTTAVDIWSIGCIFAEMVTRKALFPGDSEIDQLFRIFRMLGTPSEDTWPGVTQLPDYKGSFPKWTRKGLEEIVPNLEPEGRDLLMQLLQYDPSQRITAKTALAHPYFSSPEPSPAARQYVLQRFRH", "experiment": "Inhibition of CDK3 assessed as enzyme activity at 1 uM relative to untreated control", "parameters": "scale not given: the % may be the effect or the level left"}, "[13]": {"target": "Dual specificity protein kinase CLK1 (Homo sapiens) (UniProt P49759)", "experiment": "Inhibition of CLK1 assessed as enzyme activity at 1 uM relative to untreated control", "parameters": "scale not given: the % may be the effect or the level left"}, "[14]": {"target": "RAF proto-oncogene serine/threonine-protein kinase (Homo sapiens) (UniProt P04049)", "experiment": "Inhibition of RAF1 assessed as enzyme activity at 1 uM relative to untreated control", "parameters": "scale not given: the % may be the effect or the level left"}, "[15]": {"target": "Receptor tyrosine-protein kinase erbB-2 (Homo sapiens) (UniProt P04626)", "sequence (P04626 whole entry)": "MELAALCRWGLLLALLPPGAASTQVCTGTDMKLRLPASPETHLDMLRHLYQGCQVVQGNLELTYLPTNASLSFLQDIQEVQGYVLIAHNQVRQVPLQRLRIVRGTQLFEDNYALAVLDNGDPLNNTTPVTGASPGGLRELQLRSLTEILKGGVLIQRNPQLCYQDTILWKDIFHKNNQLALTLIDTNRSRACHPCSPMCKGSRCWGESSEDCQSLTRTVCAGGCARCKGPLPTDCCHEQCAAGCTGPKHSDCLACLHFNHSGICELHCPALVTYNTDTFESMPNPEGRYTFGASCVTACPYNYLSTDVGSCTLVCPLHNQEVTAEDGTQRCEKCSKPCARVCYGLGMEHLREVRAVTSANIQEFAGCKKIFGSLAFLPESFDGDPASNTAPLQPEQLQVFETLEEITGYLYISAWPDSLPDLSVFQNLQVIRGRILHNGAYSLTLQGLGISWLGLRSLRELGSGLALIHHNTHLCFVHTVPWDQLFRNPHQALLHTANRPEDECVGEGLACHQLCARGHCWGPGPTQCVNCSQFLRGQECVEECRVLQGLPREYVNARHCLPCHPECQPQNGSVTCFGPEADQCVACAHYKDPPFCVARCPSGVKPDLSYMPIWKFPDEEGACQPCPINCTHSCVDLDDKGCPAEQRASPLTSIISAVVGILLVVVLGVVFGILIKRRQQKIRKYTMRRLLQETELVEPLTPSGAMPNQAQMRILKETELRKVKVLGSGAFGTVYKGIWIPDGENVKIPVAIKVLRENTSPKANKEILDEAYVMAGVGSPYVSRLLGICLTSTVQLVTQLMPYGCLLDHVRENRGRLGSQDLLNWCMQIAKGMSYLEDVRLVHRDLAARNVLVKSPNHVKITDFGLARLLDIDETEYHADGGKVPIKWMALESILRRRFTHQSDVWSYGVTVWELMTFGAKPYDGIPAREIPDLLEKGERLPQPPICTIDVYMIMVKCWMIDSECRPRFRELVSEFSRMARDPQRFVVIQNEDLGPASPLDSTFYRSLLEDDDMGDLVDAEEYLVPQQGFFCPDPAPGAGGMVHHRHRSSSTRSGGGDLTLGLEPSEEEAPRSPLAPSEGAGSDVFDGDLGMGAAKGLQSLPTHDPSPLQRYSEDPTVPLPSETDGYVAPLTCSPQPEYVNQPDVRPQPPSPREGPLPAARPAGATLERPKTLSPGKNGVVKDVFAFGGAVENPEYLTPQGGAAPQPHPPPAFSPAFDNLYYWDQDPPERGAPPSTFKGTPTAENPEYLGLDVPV", "experiment": "Inhibition of ERBB2 assessed as enzyme activity at 1 uM relative to untreated control", "parameters": "scale not given: the % may be the effect or the level left"}, "[16]": {"target": "Receptor tyrosine-protein kinase erbB-4 (Homo sapiens) (UniProt Q15303)", "experiment": "Inhibition of ERBB4 assessed as enzyme activity at 1 uM relative to untreated control", "parameters": "scale not given: the % may be the effect or the level left"}, "[17]": {"target": "Mitogen-activated protein kinase 3 (Homo sapiens) (UniProt P27361)", "experiment": "Inhibition of ERK1 assessed as enzyme activity at 1 uM relative to untreated control", "parameters": "scale not given: the % may be the effect or the level left"}, "[18]": {"target": "Tyrosine-protein kinase Fes/Fps (Homo sapiens) (UniProt P07332)", "experiment": "Inhibition of FES assessed as enzyme activity at 1 uM relative to untreated control", "parameters": "scale not given: the % may be the effect or the level left"}, "[19]": {"target": "Fibroblast growth factor receptor 2 (Homo sapiens) (UniProt P21802)", "experiment": "Inhibition of FGFR2 assessed as enzyme activity at 1 uM relative to untreated control", "parameters": "scale not given: the % may be the effect or the level left"}, "[20]": {"target": "Fibroblast growth factor receptor 3 (Homo sapiens) (UniProt P22607)", "experiment": "Inhibition of FGFR3 assessed as enzyme activity at 1 uM relative to untreated control", "parameters": "scale not given: the % may be the effect or the level left"}, "[21]": {"experiment": "Inhibition of FLT3 ITD assessed as enzyme activity at 1 uM relative to untreated control", "parameters": "scale not given: the % may be the effect or the level left"}, "[22]": {"target": "Death-associated protein kinase 2 (Homo sapiens) (UniProt Q9UIK4)", "experiment": "Inhibition of DAPK2 assessed as enzyme activity at 1 uM relative to untreated control", "parameters": "scale not given: the % may be the effect or the level left"}, "[23]": {"target": "Serine/threonine-protein kinase MRCK gamma (Homo sapiens) (UniProt Q6DT37)", "experiment": "Inhibition of DMPK2 assessed as enzyme activity at 1 uM relative to untreated control", "parameters": "scale not given: the % may be the effect or the level left"}, "[24]": {"target": "Ephrin type-A receptor 1 (Homo sapiens) (UniProt P21709)", "experiment": "Inhibition of EPHA1 assessed as enzyme activity at 1 uM relative to untreated control", "parameters": "scale not given: the % may be the effect or the level left"}, "[25]": {"experiment": "AUC (0 to 24 hrs) in human A375 SQ2 cells xenografted po dosed CD1 mouse administered once daily for 14 days", "type": "ADME, organism-based, A-375", "parameters": "time < 24 hr, route oral", "details": "in vivo"}, "[26]": {"test_system": "Tyrosine-protein kinase ABL1 (Homo sapiens), P00519 [Y253F]", "experiment": "Inhibition of ABL1 Y253F mutant assessed as enzyme activity at 1 uM relative to untreated control", "parameters": "scale not given: the % may be the effect or the level left"}, "[27]": {"target": "Activin receptor type-2B (Homo sapiens) (UniProt Q13705)", "experiment": "Inhibition of ACVR2B assessed as enzyme activity at 1 uM relative to untreated control", "parameters": "scale not given: the % may be the effect or the level left"}, "[28]": {"target": "Atypical kinase COQ8B, mitochondrial (Homo sapiens) (UniProt Q96D53)", "sequence (Q96D53 whole entry)": "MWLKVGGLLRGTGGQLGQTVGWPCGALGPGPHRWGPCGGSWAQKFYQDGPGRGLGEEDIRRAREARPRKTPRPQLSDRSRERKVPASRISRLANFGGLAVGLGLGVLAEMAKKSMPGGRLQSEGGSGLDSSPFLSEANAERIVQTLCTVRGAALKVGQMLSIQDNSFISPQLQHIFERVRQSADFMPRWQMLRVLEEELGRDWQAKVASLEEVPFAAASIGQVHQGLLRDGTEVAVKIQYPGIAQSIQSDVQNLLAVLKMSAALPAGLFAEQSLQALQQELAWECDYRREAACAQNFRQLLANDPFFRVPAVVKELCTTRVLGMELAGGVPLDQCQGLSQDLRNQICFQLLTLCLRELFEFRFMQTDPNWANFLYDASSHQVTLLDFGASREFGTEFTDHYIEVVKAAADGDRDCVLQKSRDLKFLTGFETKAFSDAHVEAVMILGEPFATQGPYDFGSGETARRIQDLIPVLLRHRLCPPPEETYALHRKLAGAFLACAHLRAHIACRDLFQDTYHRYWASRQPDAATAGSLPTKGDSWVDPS", "experiment": "Inhibition of ADCK4 assessed as enzyme activity at 1 uM relative to untreated control", "parameters": "scale not given: the % may be the effect or the level left"}, "[29]": {"target": "RAC-gamma serine/threonine-protein kinase (Homo sapiens) (UniProt Q9Y243)", "experiment": "Inhibition of AKT3 assessed as enzyme activity at 1 uM relative to untreated control", "parameters": "scale not given: the % may be the effect or the level left"}, "[30]": {"target": "Cyclin-dependent kinase 14 (Homo sapiens) (UniProt O94921)", "experiment": "Inhibition of PFTK1 assessed as enzyme activity at 1 uM relative to untreated control", "parameters": "scale not given: the % may be the effect or the level left"}, "[31]": {"target": "Phosphorylase b kinase gamma catalytic chain, liver/testis isoform (Homo sapiens) (UniProt P15735)", "experiment": "Inhibition of PHKG2 assessed as enzyme activity at 1 uM relative to untreated control", "parameters": "scale not given: the % may be the effect or the level left"}, "[32]": {"target": "Serine/threonine-protein kinase pim-1 (Homo sapiens) (UniProt P11309)", "experiment": "Inhibition of PIM1 assessed as enzyme activity at 1 uM relative to untreated control", "parameters": "scale not given: the % may be the effect or the level left"}, "[33]": {"target": "Ankyrin repeat and protein kinase domain-containing protein 1 (Homo sapiens) (UniProt Q8NFD2)", "experiment": "Inhibition of ANKK1 assessed as enzyme activity at 1 uM relative to untreated control", "parameters": "scale not given: the % may be the effect or the level left"}, "[34]": {"target": "Aurora kinase B (Homo sapiens) (UniProt Q96GD4)", "sequence (Q96GD4 whole entry)": "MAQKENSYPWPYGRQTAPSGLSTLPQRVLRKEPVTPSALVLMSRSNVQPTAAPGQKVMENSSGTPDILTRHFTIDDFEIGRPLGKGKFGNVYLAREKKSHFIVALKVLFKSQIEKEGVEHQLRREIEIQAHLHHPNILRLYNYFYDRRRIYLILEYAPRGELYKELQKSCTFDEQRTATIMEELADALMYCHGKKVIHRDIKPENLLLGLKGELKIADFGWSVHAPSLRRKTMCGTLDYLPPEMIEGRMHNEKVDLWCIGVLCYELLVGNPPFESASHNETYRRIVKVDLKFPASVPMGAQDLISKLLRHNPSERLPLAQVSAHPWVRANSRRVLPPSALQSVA", "experiment": "Inhibition of AURKB assessed as enzyme activity at 1 uM relative to untreated control", "parameters": "scale not given: the % may be the effect or the level left"}, "[35]": {"target": "Serine/threonine-protein kinase 35 (Homo sapiens) (UniProt Q8TDR2)", "sequence (Q8TDR2 whole entry)": "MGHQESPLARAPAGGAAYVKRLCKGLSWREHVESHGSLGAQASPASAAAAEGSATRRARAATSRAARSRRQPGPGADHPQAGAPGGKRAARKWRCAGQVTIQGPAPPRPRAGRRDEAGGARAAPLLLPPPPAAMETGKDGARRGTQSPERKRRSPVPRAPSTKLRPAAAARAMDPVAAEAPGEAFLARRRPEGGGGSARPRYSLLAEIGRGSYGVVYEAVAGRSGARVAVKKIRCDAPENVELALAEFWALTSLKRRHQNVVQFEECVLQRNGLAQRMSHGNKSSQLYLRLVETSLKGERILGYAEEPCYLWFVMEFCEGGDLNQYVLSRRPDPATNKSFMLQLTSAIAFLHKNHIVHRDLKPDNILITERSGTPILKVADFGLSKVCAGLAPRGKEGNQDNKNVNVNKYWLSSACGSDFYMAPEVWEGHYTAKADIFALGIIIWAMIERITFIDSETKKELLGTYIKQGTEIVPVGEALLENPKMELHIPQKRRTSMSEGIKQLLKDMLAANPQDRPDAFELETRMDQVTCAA", "experiment": "Inhibition of STK35 assessed as enzyme activity at 1 uM relative to untreated control", "parameters": "scale not given: the % may be the effect or the level left"}, "[36]": {"target": "Serine/threonine-protein kinase 36 (Homo sapiens) (UniProt Q9NRP7)", "experiment": "Inhibition of STK36 assessed as enzyme activity at 1 uM relative to untreated control", "parameters": "scale not given: the % may be the effect or the level left"}, "[37]": {"target": "Serine/threonine-protein kinase TNNI3K (Homo sapiens) (UniProt Q59H18)", "experiment": "Inhibition of TNNI3K assessed as enzyme activity at 1 uM relative to untreated control", "parameters": "scale not given: the % may be the effect or the level left"}}}
{"smiles": "Cc1ccc2c(Nc3ccc(Cl)cc3)nccc2c1Nc1ncccc1-c1ncnc2[nH]cnc12.Cl.Cl.Cl", "values": [{"measurement": "inhibition in vivo at 2 mg/kg", "setting": "Mus musculus", "result": 69, "unit": "%"}, {"measurement": "half-life", "setting": "[1]", "result": 3.5, "unit": "h"}, {"measurement": "Activity", "setting": "[2]", "result": 100, "unit": "%"}, {"measurement": "Activity", "setting": "[3]", "result": 100, "unit": "%"}, {"measurement": "Activity", "setting": "[4]", "result": 100, "unit": "%"}, {"measurement": "Activity", "setting": "[5]", "result": 100, "unit": "%"}, {"measurement": "Activity", "setting": "[6]", "result": 66, "unit": "%"}, {"measurement": "Activity", "setting": "[7]", "result": 77, "unit": "%"}, {"measurement": "Activity", "setting": "[8]", "result": 55, "unit": "%"}, {"measurement": "Activity", "setting": "[9]", "result": 100, "unit": "%"}, {"measurement": "Activity", "setting": "[10]", "result": 100, "unit": "%"}, {"measurement": "Activity", "setting": "[11]", "result": 33, "unit": "%"}, {"measurement": "Activity", "setting": "[12]", "result": 84, "unit": "%"}, {"measurement": "Activity", "setting": "[13]", "result": 100, "unit": "%"}, {"measurement": "Activity", "setting": "[14]", "result": 0, "unit": "%"}, {"measurement": "Activity", "setting": "[15]", "result": 97, "unit": "%"}, {"measurement": "Activity", "setting": "[16]", "result": 98, "unit": "%"}, {"measurement": "Activity", "setting": "[17]", "result": 100, "unit": "%"}, {"measurement": "Activity", "setting": "[18]", "result": 100, "unit": "%"}, {"measurement": "Activity", "setting": "[19]", "result": 38, "unit": "%"}, {"measurement": "Activity", "setting": "[20]", "result": 100, "unit": "%"}, {"measurement": "Activity", "setting": "[21]", "result": 92, "unit": "%"}, {"measurement": "Activity", "setting": "[22]", "result": 100, "unit": "%"}, {"measurement": "Activity", "setting": "[23]", "result": 99, "unit": "%"}, {"measurement": "Activity", "setting": "[24]", "result": 4.6, "unit": "%"}, {"measurement": "AUC at 24 h", "setting": "[25]", "result": 2730, "unit": "ng·h/mL"}, {"measurement": "Activity", "setting": "[26]", "result": 61, "unit": "%"}, {"measurement": "Activity", "setting": "[27]", "result": 100, "unit": "%"}, {"measurement": "Activity", "setting": "[28]", "result": 77, "unit": "%"}, {"measurement": "Activity", "setting": "[29]", "result": 96, "unit": "%"}, {"measurement": "Activity", "setting": "[30]", "result": 100, "unit": "%"}, {"measurement": "Activity", "setting": "[31]", "result": 100, "unit": "%"}, {"measurement": "Activity", "setting": "[32]", "result": 93, "unit": "%"}, {"measurement": "Activity", "setting": "[33]", "result": 100, "unit": "%"}, {"measurement": "Activity", "setting": "[34]", "result": 85, "unit": "%"}, {"measurement": "Activity", "setting": "[35]", "result": 92, "unit": "%"}, {"measurement": "Activity", "setting": "[36]", "result": 92, "unit": "%"}, {"measurement": "Activity", "setting": "[37]", "result": 21, "unit": "%"}]}
